target: human TRPA1 (Homo sapiens, UniProt O75762); test: cell-based; conditions: read-out: Activity (IC50)
Sequence (O75762 whole entry): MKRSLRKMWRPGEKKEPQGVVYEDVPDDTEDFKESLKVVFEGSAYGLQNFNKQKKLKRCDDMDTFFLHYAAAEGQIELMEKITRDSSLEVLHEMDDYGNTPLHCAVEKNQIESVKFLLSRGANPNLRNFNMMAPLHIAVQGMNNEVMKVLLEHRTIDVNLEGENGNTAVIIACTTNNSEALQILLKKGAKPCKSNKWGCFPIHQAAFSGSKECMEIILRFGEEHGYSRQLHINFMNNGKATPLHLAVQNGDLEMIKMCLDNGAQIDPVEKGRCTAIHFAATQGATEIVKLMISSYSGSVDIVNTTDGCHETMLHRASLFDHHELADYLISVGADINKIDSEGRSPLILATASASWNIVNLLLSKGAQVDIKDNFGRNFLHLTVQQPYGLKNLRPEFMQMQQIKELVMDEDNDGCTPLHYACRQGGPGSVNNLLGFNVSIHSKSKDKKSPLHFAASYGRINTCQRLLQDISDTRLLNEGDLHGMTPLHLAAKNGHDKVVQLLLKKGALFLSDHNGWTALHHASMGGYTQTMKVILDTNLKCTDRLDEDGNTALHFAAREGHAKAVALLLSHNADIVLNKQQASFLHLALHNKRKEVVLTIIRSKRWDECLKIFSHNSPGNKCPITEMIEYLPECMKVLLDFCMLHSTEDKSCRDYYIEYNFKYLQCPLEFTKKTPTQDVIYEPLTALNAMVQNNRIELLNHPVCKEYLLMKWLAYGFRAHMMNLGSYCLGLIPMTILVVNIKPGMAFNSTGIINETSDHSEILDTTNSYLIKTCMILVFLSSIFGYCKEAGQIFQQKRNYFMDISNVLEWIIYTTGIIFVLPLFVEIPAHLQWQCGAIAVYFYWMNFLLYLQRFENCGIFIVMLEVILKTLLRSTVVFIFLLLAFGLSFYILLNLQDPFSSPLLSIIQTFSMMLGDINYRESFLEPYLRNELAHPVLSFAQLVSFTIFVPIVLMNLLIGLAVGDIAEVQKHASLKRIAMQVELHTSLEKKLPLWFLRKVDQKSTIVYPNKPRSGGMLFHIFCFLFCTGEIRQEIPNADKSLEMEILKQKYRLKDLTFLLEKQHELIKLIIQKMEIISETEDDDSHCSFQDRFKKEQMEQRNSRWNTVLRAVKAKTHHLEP

| SMILES | IC50 [nM] |
| --- | --- |
| CCCCc1cccc(C2NC(=O)NC3=C2C(=O)c2ccccc23)c1 (stereo not shown) [Compound 427] | 500 to 1000 |
| CCn1c(=O)oc2c(C3NC(=O)NC4=C3C(=O)c3ccccc34)cccc21 (stereo not shown) [Compound 506] | > 1000 |
| CCCC(=O)c1cccc(C2NC(=O)NC3=C2C(=O)c2cccnc23)c1 (stereo not shown) [Compound 909] | 100 to 500 |
| CCOc1cccc(C2NC(=O)N(Cc3ccncc3)C3=C2C(=O)c2ccccc23)c1 (stereo not shown) [Compound 613] | > 1000 |
| COc1cccc(C2NC(=O)N(Cc3ccccc3)C3=C2C(=O)c2ccccc23)c1 (stereo not shown) [Compound 625] | 100 to 500 |
| CCCCCOc1cccc(C2NC(=O)NC3=C2C(=O)c2ccccc23)c1 (stereo not shown) [Compound 460] | > 1000 |
| CCOc1cccc(C2NC(=O)N(CC#N)C3=C2C(=O)c2ccccc23)c1F (stereo not shown) [Compound 617] | < 100 |
